From ChEMBL document CHEMBL1154022, “Efficient synthesis of 3,3-diheteroaromatic oxindole analogues and their in vitro evaluation for spermicidal potential” (Bioorg Med Chem Lett, 2009)

What was measured:
Spermatozoa = experiment: Spermicidal activity in rat spermatozoa assessed as […]; format: functional; details: read-out: MEC
[1] = Toxicity against rabbit erythrocytes assessed as hemolytic index; format: cell-based, Oryctolagus cuniculus; details: erythrocyte

SMILES	minimal effective concentration (Spermatozoa) [µg/mL]	Activity [1] [mg/mL]
COc1ccc2[nH]cc(C3(c4c[nH]c5ccc(OC)cc45)C(=O)Nc4ccccc43)c2c1	340	3.3
Cc1c(C2(c3[nH]c4ccccc4c3C)C(=O)Nc3ccccc32)[nH]c2ccccc12	1000	–
O=C1Nc2ccccc2C1(c1c[nH]c2ccc(Br)cc12)c1c[nH]c2ccc(Br)cc12	3180	–
O=C1Nc2ccccc2C1(c1c[nH]c2ccccc12)c1c[nH]c2ccccc12	2400	–
O=C(O)Cc1c(C2(c3[nH]c4ccccc4c3CC(=O)O)C(=O)Nc3ccccc32)[nH]c2ccccc12	530	–
Cc1[nH]c2ccccc2c1C1(c2c(C)[nH]c3ccccc23)C(=O)Nc2ccccc21	2820	–
O=C(O)c1[nH]c2ccccc2c1C1(c2c(C(=O)O)[nH]c3ccccc23)C(=O)Nc2ccccc21	1110	–
Cn1cc(C2(c3cn(C)c4ccccc34)C(=O)Nc3ccccc32)c2ccccc21	2360	–
O=C1Nc2ccccc2C1(c1ccc[nH]1)c1ccc[nH]1	3150	–
CCCCCCCCCc1ccc(OCCOCCOCCOCCOCCOCCOCCOCCOCCO)cc1 [NONOXYNOL 9]	500	–
